The values that follow come from patent publication US12540141B2, “Spiropyrrolidine derived antiviral agents” (priority 2020, dated 2026).

In one assay the target is SARS-CoV-2 3CL-protease (Severe acute respiratory syndrome coronavirus 2, UniProt P0DTD1). The assay is described as follows: SARS-CoV-2 3C-Like (3CL) Protease Fluorescence Assay (FRET). It counts as biochemical. Particulars: SARS-CoV-2 3CL-protease 10 nM, 30 min preincubation at RT, substrate 40 μM.
Assay [1] deals with 229E human corona virus (hCoV). In words: 229E Live Virus Assay (MRC-5 cells, CPE read by ATPlite). It counts as cell-based, hCoV-229E. The note with it: Human coronavirus 229E, MRC5; hCoV-229E live virus in MRC-5 cells, MOI 0.05, CPE by ATPlite; run in duplicate.

With `[2H]C([2H])([2H])N(C(=O)[C@H](O)c1ccc(F)cc1)[C@@H](CC1CC1)C(=O)N1C[C@]2(C[C@H]1C#N)C(=O)Nc1ccccc12` [Example 422], the IC50 at SARS-CoV-2 3CL-protease is less than 100 nM. The EC50 in assay [1] was less than 100 nM.

In turn, `COc1cc(C(=O)N(C)[C@@H](CC(C)C)C(=O)N2C[C@]3(C[C@H]2C#N)C(=O)Nc2ccccc23)cc2c1=NC(C1CC1)N=2` (stereo partly shown) [Example 308] came in with an IC50 at SARS-CoV-2 3CL-protease of less than 100 nM. The compound also had an EC50 in assay [1] of 100 to 1000 nM.

At SARS-CoV-2 3CL-protease, `CC(C)C[C@@H](C(=O)N1C[C@]2(C[C@H]1C#N)C(=O)Nc1ccccc12)N(C)C(=O)c1cc(OC2CC2)c2c(c1)=NC(C1CC1)N=2` (stereo partly shown) [Example 307] gave an IC50 of 100 to 1000 nM. In addition, the EC50 in assay [1] was 100 to 1000 nM.

`CC(C)C[C@@H](C(=O)N1C[C@]2(C[C@H]1C#N)C(=O)Nc1ccccc12)N(C)C(=O)c1ccc2ccc(Br)cc2c1` [Example 230] returned an IC50 on SARS-CoV-2 3CL-protease of 100 to 1000 nM. In assay [1], this compound gave an EC50 of less than 100 nM.

Consider `CC(C)C[C@@H](C(=O)N1C[C@]2(C[C@H]1C#N)C(=O)Nc1ccccc12)N(C)C(=O)c1ccc(-c2ccccc2)cn1` [Example 232], for which the IC50 on SARS-CoV-2 3CL-protease lay in the range of 100 to 1000 nM. This compound also returned an EC50 in assay [1] of less than 100 nM.

In turn, `COc1cc(Cl)cc(C(=O)N(C)[C@@H](CC(C)C)C(=O)N2C[C@]3(C[C@H]2C#N)C(=O)Nc2ccccc23)c1` [Example 180] displayed an IC50 against SARS-CoV-2 3CL-protease of less than 100 nM. The EC50 in assay [1] was less than 100 nM.

`CN(C(=O)[C@H](O)c1ccc(F)cc1)[C@@H](CC1CC1)C(=O)N1C[C@]2(C[C@H]1C#N)C(=O)Nc1ccccc12` [Example 415] registered an IC50 on SARS-CoV-2 3CL-protease of less than 100 nM. The concentration for a half-maximal effect (EC50) in assay [1] is less than 100 nM.

For the compound `CN(C(=O)[C@@H](O)c1ccc(F)cc1)[C@@H](CC1CC1)C(=O)N1C[C@]2(C[C@H]1C#N)C(=O)Nc1ccccc12` [Example 414, (S)—N—((S)-1-((3R,5′S)-5′-cyano-2-oxospiro[indoline-3,3′-pyrrolidin]-1′-yl)-3-cyclopropyl-1-oxopropan-2-yl)-2-(4-fluorophenyl)-2-hydroxy-N-methyl acetamide], at SARS-CoV-2 3CL-protease, the IC50 is less than 100 nM. The EC50 in assay [1] was less than 100 nM.

For orientation: IC50 means the concentration needed to halve the response being measured. Broadly, the EC50 is the concentration at which the effect is half-maximal. Read a high EC50 as lower potency in that assay.
